Laboratory results: the supplement of paper PMC10307832

Columns and labels:
Assay in all cases: relative viability (nuclei count vs DMSO), 5 days (fraction); higher = more cells survive
kb NB 142-70 + Olaparib = compound: C1CSC2=C(C(=O)N1)SC3=C2C=C(C=C3)O [kb NB 142-70] + O=C(c1cc(Cc2n[nH]c(=O)c3ccccc23)ccc1F)N1CCN(C(=O)C2CC2)CC1 [Olaparib] (partner 8 µM)
Procedure, shortened: (§1)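 One day after seeding in 1536-well plates, lung cancer cell lines were dosed by pin tool. Dosing was either single-drug or a fixed anchor-drug dose plus five library-drug doses (not always all listed) in √10 steps. After 5 days, nuclei were stained in one fix-and-stain step and counted on 4× images, and relative viability is the nuclei count of treated wells over that of vehicle wells, given as the median of duplicate plates.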

[1] = compound: NCC(=O)Nc1ccc(-n2nc(C(F)(F)F)cc2-c2ccc3c(ccc4ccccc43)c2)cc1 + COc1cc2c(Oc3ccc(NC(=O)C4(C(=O)Nc5ccc(F)cc5)CC4)cc3F)ccnc2cc1OCCCN1CCOCC1 [Foretinib] (partner 0.25 µM)
Procedure, shortened: as §1

[2] = compound: NCC(=O)Nc1ccc(-n2nc(C(F)(F)F)cc2-c2ccc3c(ccc4ccccc43)c2)cc1 + C[C@]1(O)C[C@@H](c2nc(-c3ccc4ccc(-c5ccccc5)nc4c3)c3c(N)nccn32)C1 [Linsitinib] (partner 1 µM)
Procedure, shortened: as §1

[3] = compound: NCC(=O)Nc1ccc(-n2nc(C(F)(F)F)cc2-c2ccc3c(ccc4ccccc43)c2)cc1 + Nc1ncn([C@H]2C[C@H](O)[C@@H](CO)O2)c(=O)n1 [Decitabine] (partner 2 µM)
Procedure, shortened: as §1

Cell Line	relative viability (kb NB 142-70 + Olaparib; first compound 0.1 µM)	relative viability (kb NB 142-70 + Olaparib; first compound 1 µM)	relative viability (kb NB 142-70 + Olaparib; first compound 3.162 µM)	relative viability ([1]; first compound 0.02 µM)	relative viability ([1]; first compound 0.06325 µM)	relative viability ([1]; first compound 0.2 µM)	relative viability ([1]; first compound 0.6325 µM)	relative viability ([1]; first compound 2 µM)	relative viability ([2]; first compound 0.02 µM)	relative viability ([2]; first compound 0.06325 µM)	relative viability ([2]; first compound 0.2 µM)	relative viability ([2]; first compound 0.6325 µM)	relative viability ([2]; first compound 2 µM)	relative viability ([3]; first compound 0.02 µM)	relative viability ([3]; first compound 0.06325 µM)	relative viability ([3]; first compound 0.2 µM)	relative viability ([3]; first compound 0.6325 µM)	relative viability ([3]; first compound 2 µM)
NCI-H2347	0.634	0.632	0.568	1.36	0.838	1.02	1.03	0.833	0.953	0.98	1.04	1.07	1.01	0.661	0.599	0.74	0.615	0.599
NCI-H2405	0.824	0.895	0.723	1.12	1.07	1.13	1.03	1.11	0.91	1.01	0.923	0.921	0.971	0.686	0.759	0.837	0.723	0.754
NCI-H3122	0.648	0.714	0.793	0.973	0.906	1.01	0.962	0.888	1.06	1.09	1.03	1.04	1.04	0.445	0.418	0.495	0.448	0.435
PC-3 [JPC-3]	1.12	1.25	1.15	1.08	1.1	1.12	1.08	1.16	0.957	0.977	0.992	0.963	0.961	0.818	0.854	0.768	0.863	0.777
PC-14	0.318	0.265	0.216	1.03	1.09	0.942	0.98	0.944	1.07	0.917	1.05	0.936	0.993	0.259	0.236	0.209	0.258	0.23
RERF-LC-KJ	1.03	1.01	0.675	0.963	1.06	0.927	0.466	0.851	0.923	0.84	0.9	0.857	0.982	0.758	0.791	0.673	0.78	0.641
SK-LU-1	0.423	0.396	0.271	0.845	0.843	0.97	0.785	0.85	1.16	1.1	1.5	1.15	1.15	0.6	0.658	0.734	0.615	0.633
SK-MES-1	0.719	0.484	0.181	0.955	0.896	0.995	0.959	1.06	1.08	1.03	1.11	0.997	1.17	0.386	0.36	0.461	0.359	0.4
SW 1573	0.421	0.305	0.177	0.986	0.867	0.87	0.895	0.905	0.851	0.748	0.863	0.846	0.789	0.496	0.524	0.524	0.518	0.436
